Patent US20260007613A1, “LONG-ACTING LOW-TOXICITY NOVEL CATIONIC LIPID COMPOUNDS AND COMPOSITION THEREOF” (BEIJING YOUCAREKECHUANG PHARMACEUTICAL TECHNOLOGY CO., LTD., priority 2023, published 2026)
“And” between values parts separate entries of the source, which are not always exact repeats. Identical values can stand only once.

Experiments:
293T cells [1] = experiment: Cell survival rate determination (CCK-8); type: cell-based; conditions: difference of survival rates
Procedure, shortened: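 Readout was CCK-8 absorbance (450 nm, 1 h) taken after a 24 h exposure of overnight-adhered 293T cells (10,000 per well, 96-well) to Lipofectamine 3000 or to LNPs carrying Fluc-mRNA, lipid molar ratio 49:10:39.5:1.5 cationic/neutral/structured/polymer-conjugated.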

female BALB/C mice = experiment: Live imaging in mice: protein expression of Fluc-mRNA delivered by LNP formulations; type: in vivo; conditions: for average radiation intensity, times that of ALC-0315: comparator ALC-0315; for average radiation intensity, times that of HHMA: comparator HHMA; for average radiation intensity, times that of SM-102: comparator SM-102; for expression of mRNA in mice, times that of YK-302: comparator YK-302; for expression amount, times that of YK-321: comparator YK-321; for average radiation intensity, times that of compound 21: comparator compound 21; for average radiation intensity, times that of compound 23: comparator compound 23
Procedure, shortened: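 Female BALB/C mice (4-6 weeks, 17-19 g) received LNP-formulated Fluc-mRNA […] intramuscularly. At 6 h, 24 h, 48 h and 7 d, luciferase substrate given intraperitoneally, and after 5 min average radiance measured by IVIS whole-body imaging.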

293T cells [2] = experiment: Fluorescent detection of Fluc-mRNA (cell transfection efficiency of LNP formulations); type: cell-based
Procedure, shortened: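 Transfection read-out: IVIS imaging after […], 24 h after adding LNPs (lipid molar ratio 49:10:39.5:1.5 cationic/neutral/structured/polymer-lipid; […] Fluc-mRNA). Adherent 293T cells were seeded overnight at 10,000 per well beforehand.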

[3] = Particle size and polydispersity index (PDI) of lipid nanoparticles by dynamic light scattering; type: physicochemical; conditions: LNP formulation prepared from the cationic lipid, 25° C.
Procedure: The particle size and polydispersity index (PDI) were determined by dynamic light scattering using Malvern laser particle size analyzer.
10 μL of the liposome solution was weighed, diluted to 1 mL with RNase-free deionized water, and added to the sample pool. Each sample was measured in triplicate. The measurement conditions were: […] scattering angle, and 25° C.

liver = experiment: Distribution of liposomes in mice: protein expression in the liver (live imaging); type: in vivo; conditions: at 6 h
Procedure, shortened: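 Female BALB/C mice (4–6 weeks, 17–19 g) received LNP carrying […] Fluc-mRNA intramuscularly. At 6 h, 24 h, 48 h and 7 d, the luciferase substrate was given intraperitoneally. After 5 min of free movement, average radiance was imaged with IVIS Spectrum.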

CCCCCCC(CCCCCC)CCOC(=O)CCCCCCN(CCCCCCC(=O)OCCC(CCCCCC)CCCCCC)C[C@H](O)CN(CCO)CCO [YK-319]
cell survival rate higher than ALC-0315 (293T cells [1]; comparator ALC-0315): 24.18% | cell survival rate higher than HHMA (293T cells [1]; comparator HHMA): 8.74% | cell survival rate higher than Lipofectamine 3000 (293T cells [1]; comparator Lipofectamine 3000): 50.20% | cell survival rate higher than SM-102 (293T cells [1]; comparator SM-102): 5.76% | cell survival rate higher than YK-301 (293T cells [1]; comparator YK-301): 22.25% | cell survival rate higher than YK-302 (293T cells [1]; comparator YK-302): 58.78% | cell survival rate higher than YK-303 (293T cells [1]; comparator YK-303): 11.89% | cell survival rate higher than YK-304 (293T cells [1]; comparator YK-304): 41.05% | cell survival rate higher than YK-306 (293T cells [1]; comparator YK-306): 33.02% | cell survival rate higher than YK-307 (293T cells [1]; comparator YK-307): 14.07% | cell survival rate higher than YK-308 (293T cells [1]; comparator YK-308): 4.22% | cell survival rate higher than YK-309 (293T cells [1]; comparator YK-309): 43.60% | cell survival rate higher than YK-311 (293T cells [1]; comparator YK-311): 5.15% | cell survival rate higher than YK-313 (293T cells [1]; comparator YK-313): 6.28% | cell survival rate higher than YK-314 (293T cells [1]; comparator YK-314): 7.33% | cell survival rate higher than YK-315 (293T cells [1]; comparator YK-315): 3.93% | cell survival rate higher than YK-316 (293T cells [1]; comparator YK-316): 4.68% | cell survival rate higher than YK-317 (293T cells [1]; comparator YK-317): 16.03% | cell survival rate higher than YK-320 (293T cells [1]; comparator YK-320): 4.14% | cell survival rate higher than YK-321 (293T cells [1]; comparator YK-321): 2.87% | cell survival rate higher than compound 21 (293T cells [1]; comparator compound 21): 5.00% | cell survival rate higher than compound 23 (293T cells [1]; comparator compound 23): 3.71% | average radiation intensity, times that of ALC-0315 (female BALB/C mice; 6 h): 9.53 times | average radiation intensity, times that of HHMA (female BALB/C mice; 6 h): 12.64 times | average radiation intensity, times that of SM-102 (female BALB/C mice; 6 h): 11.74 times | expression of mRNA in mice, times that of YK-302 (female BALB/C mice; 6 h): 564.51 times | expression amount, times that of YK-321 (female BALB/C mice; 6 h): 15.96 times | average radiation intensity, times that of compound 21 (female BALB/C mice; 6 h): 13.49 times | average radiation intensity, times that of compound 23 (female BALB/C mice; 6 h): 13.96 times | average radiation intensity (female BALB/C mice; 6 h after intramuscular injection): 8230500 | average radiation intensity, times that of ALC-0315 (female BALB/C mice; 24 h): 12.78 times | average radiation intensity, times that of HHMA (female BALB/C mice; 24 h): 20.29 times | average radiation intensity, times that of SM-102 (female BALB/C mice; 24 h): 20.20 times | expression of mRNA in mice, times that of YK-302 (female BALB/C mice; 24 h): 615.26 times | expression amount, times that of YK-321 (female BALB/C mice; 24 h): 24.04 times | average radiation intensity, times that of compound 21 (female BALB/C mice; 24 h): 22.16 times | average radiation intensity, times that of compound 23 (female BALB/C mice; 24 h): 23.28 times | average radiation intensity (female BALB/C mice; 24 h after intramuscular injection): 2433960 | average radiation intensity, times that of ALC-0315 (female BALB/C mice; 48 h): 22.30 times | average radiation intensity, times that of HHMA (female BALB/C mice; 48 h): 27.27 times | average radiation intensity, times that of SM-102 (female BALB/C mice; 48 h): 27.27 times | expression of mRNA in mice, times that of YK-302 (female BALB/C mice; 48 h): 866.03 times | expression amount, times that of YK-321 (female BALB/C mice; 48 h): 24.28 times | average radiation intensity, times that of compound 21 (female BALB/C mice; 48 h): 28.65 times | average radiation intensity, times that of compound 23 (female BALB/C mice; 48 h): 26.80 times | average radiation intensity (female BALB/C mice; 48 h after intramuscular injection): 887680 | average radiation intensity, times that of ALC-0315 (female BALB/C mice; 7 d): 14.88 times | average radiation intensity, times that of HHMA (female BALB/C mice; 7 d): 17.86 times | average radiation intensity, times that of SM-102 (female BALB/C mice; 7 d): 15.84 times | expression of mRNA in mice, times that of YK-302 (female BALB/C mice; 7 d): 273.07 times | expression amount, times that of YK-321 (female BALB/C mice; 7 d): 15.92 times | average radiation intensity, times that of compound 21 (female BALB/C mice; 7 d): 16.27 times | average radiation intensity, times that of compound 23 (female BALB/C mice; 7 d): 16.80 times | average radiation intensity (female BALB/C mice; 7 d after intramuscular injection): 104860 | Relative light unit (RLU) (293T cells [2]; LNP formulation of Fluc-mRNA, 96-well plate, 24 hours): 24467760 RLU | Multiples (YK-305) (293T cells [2]; RLU of YK-305 / RLU of the lipid of the line): 1.12 | Multiples (YK-310) (293T cells [2]; RLU of YK-310 / RLU of the lipid of the line): 1.05 | Multiples (YK-312) (293T cells [2]; RLU of YK-312 / RLU of the lipid of the line): 0.82 | Multiples (YK-318) (293T cells [2]; RLU of YK-318 / RLU of the lipid of the line, Tables 5, 7, 11): 0.46 | Multiples (YK-319) (293T cells [2]; RLU of YK-319 / RLU of the lipid of the line, Tables 5, 7, 11): 1.00 | Ratio relative to SM-102 (293T cells [2]; RLU of the lipid / RLU of SM-102, times that of SM-102): 15.25 | cell transfection efficiency, times that of ALC-0315 (293T cells [2]; comparator ALC-0315): 12.03 times | cell transfection efficiency, times that of HHMA (293T cells [2]; comparator HHMA): 12.20 times | cell transfection efficiency, times that of Lipofectamine 3000 (293T cells [2]; comparator Lipofectamine 3000): 20.63 times | cell transfection efficiency, times that of YK-009 (293T cells [2]; comparator YK-009): 4.78 times | cell transfection efficiency, times that of YK-301 (293T cells [2]; comparator YK-301): 29.04 times | cell transfection efficiency, times that of YK-302 (293T cells [2]; comparator YK-302): 880.83 times | cell transfection efficiency, times that of YK-303 (293T cells [2]; comparator YK-303): 39.07 times | cell transfection efficiency, times that of YK-304 (293T cells [2]; comparator YK-304): ~1100 times and 1182.82 times | cell transfection efficiency, times that of YK-306 (293T cells [2]; comparator YK-306): 11.14 times | cell transfection efficiency, times that of YK-307 (293T cells [2]; comparator YK-307): 5.37 times | cell transfection efficiency, times that of YK-308 (293T cells [2]; comparator YK-308): 2.22 times | cell transfection efficiency, times that of YK-309 (293T cells [2]; comparator YK-309): ~190 times and 195.16 times | cell transfection efficiency, times that of YK-311 (293T cells [2]; comparator YK-311): 12.46 times | cell transfection efficiency, times that of YK-313 (293T cells [2]; comparator YK-313): 28.24 times | cell transfection efficiency, times that of YK-314 (293T cells [2]; comparator YK-314): 44.70 times | cell transfection efficiency, times that of YK-315 (293T cells [2]; comparator YK-315): 15.42 times | cell transfection efficiency, times that of YK-316 (293T cells [2]; comparator YK-316): 5.09 times | cell transfection efficiency, times that of YK-317 (293T cells [2]; comparator YK-317): 6.79 times | cell transfection efficiency, times that of YK-320 (293T cells [2]; comparator YK-320): 9.05 times | cell transfection efficiency, times that of YK-321 (293T cells [2]; comparator YK-321): 17.43 times | cell transfection efficiency, times that of compound 21 (293T cells [2]; comparator compound 21): 17.08 times | cell transfection efficiency, times that of compound 23 (293T cells [2]; comparator compound 23): 18.04 times | PDI (%) [3]: 11.7% | Particle size (nm) [3]: 200 nm | expression amount in the liver compared with ALC-0315 and SM-102 (liver): reduced | protein expression in the liver (liver; intramuscular injection): had protein expression in the liver
